{"source": "patent US10500166B2", "about": "“Methods for the treatment of erectile dysfunction using fispemifene” (QUATRX PHARMACEUTICALS, priority 2007, dated 2019)", "key": {"[1]": {"test_system": "SHBG (sex hormone-binding globulin)", "assay": "Example 3 study in hypogonadal men: serum sex hormone binding globulin (ITT)", "type": "in vivo, human", "settings": "Baseline (Visit 2)", "method": "(§1) A randomized, double-blind, placebo controlled, parallel-group study of once-daily doses of fispemifene (100, 200, and 300 mg/day) given for 4 weeks was conducted in a population of hypogonadal men. Subjects were required to meet all of the following inclusion criteria at screening and prior to randomization to be eligible for the study:\n(§2) There were 77 subjects total. The number of subjects randomized to the 100 mg fispemifene, 200 mg fispemifene, 300 mg fispemifene, and placebo arms were 21, 21, 19, and 16, respectively.\n(§3) Subjects were randomly assigned to one of four treatment groups in a 1:1:1:1 ratio: • Treatment A (100 mg): fispemifene 100 mg+placebo+placebo; • Treatment B (200 mg): fispemifene 100 mg+fispemifene 100 mg+placebo; • Treatment C (300 mg): fispemifene 100 mg+fispemifene 100 mg+fispemifene 100 mg; and • Treatment D (Placebo): placebo+placebo+placebo.\n(§4) Subjects took one dose (three capsules) of study medication once a day at home for 4 weeks. Capsules were to be taken in the morning immediately after breakfast, with the exception of the morning of the Week 4 visit. Capsules were not to be taken on the morning of the Week 4 visit because trough plasma levels of fispemifene were determined by a blood sample taken at this visit. Each subject was randomly assigned to treatment with one of the 3 different dose regimens of fispemifene or placebo vehicle. Each subject received a 4 week supply of study drug.\n(§5) Blood samples were taken from the subjects within 1 week prior to dosing with study drug to establish baseline values; after 2 and 4 weeks of randomization; and 2 weeks after the last dose of study drug. Serum was prepared from those samples and used to determine the mean % change from baseline in total testosterone, free testosterone, SHBG (sex hormone-binding globulin), DHT (dihydrotestosterone), E2 (estradiol), LH (luteinizing hormone), FSH (follicle stimulating hormone), and inhibin B.\n(§6) 3. Percent change from baseline in SHBG, DHT, E2, LH, FSH, inhibin B, and testosterone/E2 ratio at Weeks 2, 4, and 6."}, "inhibin B": {"test_system": "inhibin B", "assay": "Example 3 study in hypogonadal men: serum inhibin B (ITT)", "type": "in vivo, human", "settings": "for Inhibin B % Change from Baseline to Week 2, Max / Inhibin B % Change from Baseline to Week 2, Mean ± SD / Inhibin B % Change from Baseline to Week 2, Median / Inhibin B % Change from Baseline to Week 2, Min: Week 2, (Week minus Baseline) divided by Baseline; for Inhibin B % Change from Baseline to Week 2, Max / Inhibin B % Change from Baseline to Week 2, Mean ± SD / Inhibin B % Change from Baseline to Week 2, Median / Inhibin B % Change from Baseline to Week 2, Min / Inhibin B % Change from Baseline to Week 4, Max / Inhibin B % Change from Baseline to Week 4, Mean ± SD / Inhibin B % Change from Baseline to Week 4, Median / Inhibin B % Change from Baseline to Week 4, Min / Inhibin B % Change from Baseline to Week 6, Max / Inhibin B % Change from Baseline to Week 6, Mean ± SD / Inhibin B % Change from Baseline to Week 6, Median / Inhibin B % Change from Baseline to Week 6, Min: LOCF; for Inhibin B % Change from Baseline to Week 4, Max / Inhibin B % Change from Baseline to Week 4, Mean ± SD / Inhibin B % Change from Baseline to Week 4, Median / Inhibin B % Change from Baseline to Week 4, Min: Week 4, (Week minus Baseline) divided by Baseline; for Inhibin B % Change from Baseline to Week 6, Max / Inhibin B % Change from Baseline to Week 6, Mean ± SD / Inhibin B % Change from Baseline to Week 6, Median / Inhibin B % Change from Baseline to Week 6, Min: Week 6, (Week minus Baseline) divided by Baseline", "method": "as §1, §2, §3, §4, §5, §6"}}, "data": [{"smiles": "OCCOCCOc1ccc(/C(=C(/CCCl)c2ccccc2)c2ccccc2)cc1", "note": "[Fispemifene, (Z)-2-{2-[4-(4-Chloro-1,2-diphenylbut-1-enyl)phenoxy]ethoxy}ethanol]", "values": [{"measurement": "Sex Hormone Binding Globulin, Median", "setting": "[1]; 200 mg/day", "result": 18.0, "unit": "nmol/L"}, {"measurement": "Sex Hormone Binding Globulin, Min", "setting": "[1]; 200 mg/day", "result": 3.7, "unit": "nmol/L"}, {"measurement": "Sex Hormone Binding Globulin, Max", "setting": "[1]; 300 mg/day", "result": 48.0, "unit": "nmol/L"}, {"measurement": "Sex Hormone Binding Globulin, Mean ± SD", "setting": "[1]; 300 mg/day", "result": "20.0 ± 10.28", "unit": "nmol/L"}, {"measurement": "Sex Hormone Binding Globulin, Median", "setting": "[1]; 300 mg/day", "result": 19.0, "unit": "nmol/L"}, {"measurement": "Sex Hormone Binding Globulin, Min", "setting": "[1]; 300 mg/day", "result": 5.6, "unit": "nmol/L"}, {"measurement": "Inhibin B % Change from Baseline to Week 2, Max", "setting": "inhibin B; 100 mg", "result": 1.64}, {"measurement": "Inhibin B % Change from Baseline to Week 2, Mean ± SD", "setting": "inhibin B; 100 mg", "result": "0.24 ± 0.493"}, {"measurement": "Inhibin B % Change from Baseline to Week 2, Median", "setting": "inhibin B; 100 mg", "result": 0.17}, {"measurement": "Inhibin B % Change from Baseline to Week 2, Min", "setting": "inhibin B; 100 mg", "result": "−0.44"}, {"measurement": "Inhibin B % Change from Baseline to Week 4, Max", "setting": "inhibin B; 100 mg", "result": 1.86}, {"measurement": "Inhibin B % Change from Baseline to Week 4, Mean ± SD", "setting": "inhibin B; 100 mg", "result": "0.30 ± 0.631"}, {"measurement": "Inhibin B % Change from Baseline to Week 4, Median", "setting": "inhibin B; 100 mg", "result": 0.09}, {"measurement": "Inhibin B % Change from Baseline to Week 4, Min", "setting": "inhibin B; 100 mg", "result": "−0.61"}, {"measurement": "Inhibin B % Change from Baseline to Week 6, Max", "setting": "inhibin B; 100 mg", "result": 1.40}, {"measurement": "Inhibin B % Change from Baseline to Week 6, Mean ± SD", "setting": "inhibin B; 100 mg", "result": "0.41 ± 0.572"}, {"measurement": "Inhibin B % Change from Baseline to Week 6, Median", "setting": "inhibin B; 100 mg", "result": 0.29}, {"measurement": "Inhibin B % Change from Baseline to Week 6, Min", "setting": "inhibin B; 100 mg", "result": "−0.41"}, {"measurement": "Inhibin B Actual Value at Baseline (Visit 2), Max", "setting": "inhibin B; 100 mg", "result": 191.0, "unit": "pg/mL"}, {"measurement": "Inhibin B Actual Value at Baseline (Visit 2), Mean ± SD", "setting": "inhibin B; 100 mg", "result": "95.1 ± 46.32", "unit": "pg/mL"}, {"measurement": "Inhibin B Actual Value at Baseline (Visit 2), Median", "setting": "inhibin B; 100 mg", "result": 89.0, "unit": "pg/mL"}, {"measurement": "Inhibin B Actual Value at Baseline (Visit 2), Min", "setting": "inhibin B; 100 mg", "result": 22.0, "unit": "pg/mL"}, {"measurement": "Inhibin B % Change from Baseline to Week 2, Max", "setting": "inhibin B; 200 mg", "result": 1.48}, {"measurement": "Inhibin B % Change from Baseline to Week 2, Mean ± SD", "setting": "inhibin B; 200 mg", "result": "039 ± 0.534"}, {"measurement": "Inhibin B % Change from Baseline to Week 2, Median", "setting": "inhibin B; 200 mg", "result": 0.21}, {"measurement": "Inhibin B % Change from Baseline to Week 2, Min", "setting": "inhibin B; 200 mg", "result": "−0.22"}, {"measurement": "Inhibin B % Change from Baseline to Week 4, Max", "setting": "inhibin B; 200 mg", "result": 3.40}, {"measurement": "Inhibin B % Change from Baseline to Week 4, Mean ± SD", "setting": "inhibin B; 200 mg", "result": "0.42 ± 0.862"}, {"measurement": "Inhibin B % Change from Baseline to Week 4, Median", "setting": "inhibin B; 200 mg", "result": 0.12}, {"measurement": "Inhibin B % Change from Baseline to Week 4, Min", "setting": "inhibin B; 200 mg", "result": "−0.44"}, {"measurement": "Inhibin B % Change from Baseline to Week 6, Max", "setting": "inhibin B; 200 mg", "result": 2.00}, {"measurement": "Inhibin B % Change from Baseline to Week 6, Mean ± SD", "setting": "inhibin B; 200 mg", "result": "0.40 ± 0.628"}, {"measurement": "Inhibin B % Change from Baseline to Week 6, Median", "setting": "inhibin B; 200 mg", "result": 0.22}, {"measurement": "Inhibin B % Change from Baseline to Week 6, Min", "setting": "inhibin B; 200 mg", "result": "−0.34"}, {"measurement": "Inhibin B Actual Value at Baseline (Visit 2), Max", "setting": "inhibin B; 200 mg", "result": 220.0, "unit": "pg/mL"}, {"measurement": "Inhibin B Actual Value at Baseline (Visit 2), Mean ± SD", "setting": "inhibin B; 200 mg", "result": "105.6 ± 59.43", "unit": "pg/mL"}, {"measurement": "Inhibin B Actual Value at Baseline (Visit 2), Median", "setting": "inhibin B; 200 mg", "result": 95.0, "unit": "pg/mL"}, {"measurement": "Inhibin B Actual Value at Baseline (Visit 2), Min", "setting": "inhibin B; 200 mg", "result": 16.0, "unit": "pg/mL"}, {"measurement": "Inhibin B % Change from Baseline to Week 2, Max", "setting": "inhibin B; 300 mg", "result": 0.97}, {"measurement": "Inhibin B % Change from Baseline to Week 2, Mean ± SD", "setting": "inhibin B; 300 mg", "result": "0.12 ± 0.400"}, {"measurement": "Inhibin B % Change from Baseline to Week 2, Median", "setting": "inhibin B; 300 mg", "result": 0.05}, {"measurement": "Inhibin B % Change from Baseline to Week 2, Min", "setting": "inhibin B; 300 mg", "result": "−0.42"}, {"measurement": "Inhibin B % Change from Baseline to Week 4, Max", "setting": "inhibin B; 300 mg", "result": 0.878}, {"measurement": "Inhibin B % Change from Baseline to Week 4, Mean ± SD", "setting": "inhibin B; 300 mg", "result": "0.016 ± 0.2904"}, {"measurement": "Inhibin B % Change from Baseline to Week 4, Median", "setting": "inhibin B; 300 mg", "result": "−0.012"}, {"measurement": "Inhibin B % Change from Baseline to Week 4, Min", "setting": "inhibin B; 300 mg", "result": "−0.459"}, {"measurement": "Inhibin B % Change from Baseline to Week 6, Max", "setting": "inhibin B; 300 mg", "result": 0.645}, {"measurement": "Inhibin B % Change from Baseline to Week 6, Mean ± SD", "setting": "inhibin B; 300 mg", "result": "0.004 ± 0.3349"}, {"measurement": "Inhibin B % Change from Baseline to Week 6, Median", "setting": "inhibin B; 300 mg", "result": "−0.057"}, {"measurement": "Inhibin B % Change from Baseline to Week 6, Min", "setting": "inhibin B; 300 mg", "result": "−0.493"}, {"measurement": "Inhibin B Actual Value at Baseline (Visit 2), Max", "setting": "inhibin B; 300 mg", "result": 334.0, "unit": "pg/mL"}, {"measurement": "Inhibin B Actual Value at Baseline (Visit 2), Mean ± SD", "setting": "inhibin B; 300 mg", "result": "127.3 ± 75.76", "unit": "pg/mL"}, {"measurement": "Inhibin B Actual Value at Baseline (Visit 2), Median", "setting": "inhibin B; 300 mg", "result": 128.0, "unit": "pg/mL"}, {"measurement": "Inhibin B Actual Value at Baseline (Visit 2), Min", "setting": "inhibin B; 300 mg", "result": 16.0, "unit": "pg/mL"}]}]}
